Data as given in PMC5955586, “Transport of enniatin B and enniatin B1 across the blood-brain barrier and hints for neurotoxic effects in cerebral cells” (PLoS ONE, 2018).
Like-named read-outs stand apart in the source and are kept apart here.

What was measured:
[1] = CCK-8 viability assay in PBCEC; format: cell-based, porcine; settings: pig, primary porcine brain capillary endothelial cells (PBCEC)
Protocol: (§1) Primary porcine brain capillary endothelial cells (PBCEC) were kindly provided by the group of Prof. Dr. Langer, Institute of Pharmaceutical Technology, WWU Münster. Cellular viability was tested after treatment for 48 h using the CCK-8 assay, like applied for the cell lines but with minor modifications. Based on earlier protocols for the cultivation of PBCEC, the cryopreserved PBCEC were thawed at 37°C in a water bath, gently resuspended in culture medium (Medium 199 Earle’s with 100 U/mL penicillin, 100 μg/mL streptomycin, 100 μg/mL gentamycin, 4.1 mM L-glutamine and 10% fetal calf serum) and centrifugated at 220 × g at 20°C for 10 min. After removal of the supernatant, fresh complete medium was added and the cell pellet was resuspended twice and diluted to desired cell density. The cells were seeded on rat tail collagen coated 96-well tissue culture plates with 100 μL of the cell suspension per well. PBCEC were allowed to grow for 48 h at 37°C, 5% CO2 under saturated humidified conditions. Complete medium was exchanged for serum free medium (DMEM/Ham’s F-12 1:1 with 100 U/mL penicillin, 100 μg/mL streptomycin, 100 μg/mL gentamycin, 0.7 mM L-glutamine and 550 nM hydrocortisone (Sigma-Aldrich, Steinheim, Germany)). On day 5 in culture (96 h after seeding) half of the medium (50 μL) was removed and exchanged with 50 μL double concentrated ENN solution to reach the desired final concentrations in a concentration range from 0.1 μM to 10 μM. The cells were treated with the test substances in concentrations from 0.1 to 10 μM for 48 h. Due to the sensitivity of the primary cells, after completion of 48 h, the incubation medium was not exchanged but each well was supplemented with 10 μL of the CCK-8 solution and incubated for 70 min at 37°C, 5% CO2 in a saturated humidified atmosphere. Then the absorbance of the generated formazan dye was measured at 457 nm with 650 nm as reference wavelength. After subtracting the reference absorption as well as a blank absorption without cells, the viabilities were normalized to a solvent treated negative control (1% ACN).

PBCEC = experiment: CCK-8 viability assay in PBCEC; format: cell-based, porcine; settings: 48 h; for cytotoxic effects: 1 μM
Protocol: as §1

caspase-3 = experiment: Caspase-3 activity in CCF-STTG1 lysates; format: cell-based, human; settings: 48 h
Protocol: For studying caspase-3 activity CCF-STTG1 cells were seeded in 12 well tissue culture plates in a cell density of 2.25 × 10^5 cells/well. The cells were grown for 24 h until a confluence of at least 70% was reached, then the medium was changed to serum free medium (RPMI 1640 medium supplemented with 100 U/mL penicillin, 100 μg/mL streptomycin and 2 mM L-glutamine). Concentrations from 0.1 μM to 2.5 μM were chosen to prevent strong cytotoxic effects, which might interfere with the endpoint of interest. 24 h after adaption to serum free conditions, cells were incubated with ENN B and ENN B1. Caspase-3 activity was determined in lysates. […] 33 μL reaction solution were added to 30 μL of the supernatant and incubated for 1 and 2 h at 37°C, 5% CO2 and saturated humidified atmosphere and then measured at λex = 405 nm and λem = 520 nm (Infinite M200 PRO microplate reader). […] The results were calculated as μmol AFC/μg protein and normalized to the solvent treated control (ACN 0.25%).
For quantitation of the total protein content a bicinchoninic acid (BCA) assay kit (Sigma-Aldrich GmbH, Seelze, Germany) was applied. […] After that the absorbance was measured at 560 nm with a Infinite M200 PRO microplate reader (Tecan, Crailsheim, Germany).

CCF-STTG1 cells = experiment: LDH leakage in CCF-STTG1; format: cell-based, human; settings: CCF-STTG1, 0.1 to 2.5 μM, 48 h
Protocol: For measurement of lactate dehydrogenase (LDH) leakage, cell lysates and treatment solutions (serum free medium with respective ENN B/B1 content) after incubation for 48 h were used. The cell lysates were prepared as described for caspase-3 activation assay. To determine the LDH activity, 15 μL of the lysate and 40 μL of the incubation medium were each added to 200 μL substrate buffer (100 mM HEPES, 10 mM sodium pyruvate and 0.21 mM NADH, adjusted to pH 7.0), incubated over the course of 30 min at 37°C and absorption was measured every 2 min at 355 nm in a Infinite M200 PRO microplate reader (Tecan, Crailsheim, Germany).

Caco-2 = settings: cited from earlier work; for absorption: Caco-2, 4 h exposure; for duodenal bioavailability in vitro: Caco-2 model, 48 h
HT-29 = tested on: HT-29; set-up: method as in PMID 21640785; settings: HT-29, 48 h; cited from earlier work
HepG2 = tested on: HepG2; set-up: method as in PMID 21640785; settings: cited from earlier work
Caco-2 cells = tested on: Caco-2 cells; set-up: method as in PMID 21640785; settings: cited from earlier work
MRC-5 cells = tested on: MRC-5 cells; set-up: method as in PMID 16730043; settings: MRC-5, 24 h, Alamar Blue; cited from earlier work
HepG2 cells = tested on: HepG2 cells; set-up: method as in PMID 16730043; settings: HepG2, 24 h, Alamar Blue; cited from earlier work

In the case of `CC(C)[C@H]1C(=O)O[C@H](C(C)C)C(=O)N(C)[C@@H](C(C)C)C(=O)O[C@H](C(C)C)C(=O)N(C)[C@@H](C(C)C)C(=O)O[C@H](C(C)C)C(=O)N1C` [ENN B, enniatin B], the viability at 48 h ([1]; concentrations above 5 μM, read-out: cellular viability, minimum) is reported as 70%, the cytotoxic effects (PBCEC) is reported as “did not show any cytotoxic effects” and the “concentration with highly significant cytotoxicity” value (PBCEC) is reported as “above 5 μM”. For the same molecule, the “increase of caspase-3 activity compared to solvent control” value (caspase-3; CCF-STTG1, 2.5 μM) was 2.7 fold, the LDH release (CCF-STTG1 cells) was “no significant increase of LDH release” and the absorption (Caco-2) was > 65%. For the same molecule, the “duodenal bioavailability in vitro” value (Caco-2) was > 50%, the IC50 (HT-29) was 2.8 µM and the IC50 (HepG2) was “no IC50 could be calculated”. For the same molecule, the IC50 (Caco-2 cells) was “no IC50 could be calculated”, the IC50 (MRC-5 cells) was 9.8 µM and the IC50 (HepG2 cells) was 436 µM.

For `CC[C@H](C)[C@H]1C(=O)O[C@H](C(C)C)C(=O)N(C)[C@@H](C(C)C)C(=O)O[C@H](C(C)C)C(=O)N(C)[C@@H](C(C)C)C(=O)O[C@H](C(C)C)C(=O)N1C` [ENN B1, enniatin B1], the viability at 48 h, 10 µM ([1]; 10 μM, read-out: relative viability) was 64%, the cytotoxic effects (PBCEC) was “did not show any cytotoxic effects” and the “concentration with highly significant cytotoxicity” value (PBCEC) was ≥ 2500 nM. For the same molecule, the “maximum increase of caspase-3 activity (relative to solvent control)” value (caspase-3; CCF-STTG1, 1 μM) was 160%, the LDH release (CCF-STTG1 cells) was “no significant increase of LDH release” and the absorption (Caco-2) was > 65%. For the same molecule, the “duodenal bioavailability in vitro” value (Caco-2) was > 50%, the IC50 (HT-29) was 3.7 µM and the IC50 (HepG2; read-out: IC50) was 8.5 µM. For the same molecule, the IC50 (Caco-2 cells; read-out: IC50) was 11.5 µM, the IC50 (MRC-5 cells) was 4.7 µM and the IC50 (HepG2 cells) was 36 µM.
